Results from patent publication US8377884B2, “Variants of C-type natriuretic peptides” (Biomarin Pharmaceutical Inc., priority 2007, dated 2013).
Like-named read-outs stand apart in the source and are kept apart here. Bridge positions count the residues as written; N and C are the ends. Peptide text beside a SMILES is read from it. * marks the point of attachment. CH3O(CH2CH2O)11CH2CH2CO = COCCOCCOCCOCCOCCOCCOCCOCCOCCOCCOCCOCCC(=O)*

Experiments:
[1] = molecular target: neutral endopeptidase (NEP) (Homo sapiens, UniProt P08473); assay: In vitro neutral endopeptidase (NEP) cleavage assay; conditions: human, pH 7
Procedure, shortened: (§1)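 Recombinant human NEP (1 ug/mL final) incubated with 100 uM CNP variant in 0.1 M Tris, pH 7, at 37° C for various times, then quenched with EDTA (10 mM final) and heat. Samples reduced and analysed by HPLC and mass spectrometry. Half-life derived from loss of intact variant over time.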

Recombinant human NEP = Recombinant human NEP (Homo sapiens, UniProt P08473); assay: as above; conditions: for NEP Cleavage (t1/2, min): pH 7
Procedure, shortened: as §1

NPR-B = molecular target: T1, NPR-B (Mus musculus, UniProt Q6VVW5); assay: Stimulation of cGMP production in NIH3T3 cells; type: cell-based, Murine; conditions: for cGMP response relative to 1 uM CNP22 (%) at 0.01 µM: read-out: cGMP Response rel. to 1 uM CNP22, 10 nM; for cGMP response relative to 1 uM CNP22 (%) at 1 µM: read-out: cGMP Response rel. to 1 uM CNP22, 1 uM
T1 construct: Murine NIH3T3 cells express endogenously the CNP signaling receptor, NPR-B; endogenous in cells; host or cells: NIH3T3 (murine fibroblasts)
T1 sequence (Q6VVW5 17-1047): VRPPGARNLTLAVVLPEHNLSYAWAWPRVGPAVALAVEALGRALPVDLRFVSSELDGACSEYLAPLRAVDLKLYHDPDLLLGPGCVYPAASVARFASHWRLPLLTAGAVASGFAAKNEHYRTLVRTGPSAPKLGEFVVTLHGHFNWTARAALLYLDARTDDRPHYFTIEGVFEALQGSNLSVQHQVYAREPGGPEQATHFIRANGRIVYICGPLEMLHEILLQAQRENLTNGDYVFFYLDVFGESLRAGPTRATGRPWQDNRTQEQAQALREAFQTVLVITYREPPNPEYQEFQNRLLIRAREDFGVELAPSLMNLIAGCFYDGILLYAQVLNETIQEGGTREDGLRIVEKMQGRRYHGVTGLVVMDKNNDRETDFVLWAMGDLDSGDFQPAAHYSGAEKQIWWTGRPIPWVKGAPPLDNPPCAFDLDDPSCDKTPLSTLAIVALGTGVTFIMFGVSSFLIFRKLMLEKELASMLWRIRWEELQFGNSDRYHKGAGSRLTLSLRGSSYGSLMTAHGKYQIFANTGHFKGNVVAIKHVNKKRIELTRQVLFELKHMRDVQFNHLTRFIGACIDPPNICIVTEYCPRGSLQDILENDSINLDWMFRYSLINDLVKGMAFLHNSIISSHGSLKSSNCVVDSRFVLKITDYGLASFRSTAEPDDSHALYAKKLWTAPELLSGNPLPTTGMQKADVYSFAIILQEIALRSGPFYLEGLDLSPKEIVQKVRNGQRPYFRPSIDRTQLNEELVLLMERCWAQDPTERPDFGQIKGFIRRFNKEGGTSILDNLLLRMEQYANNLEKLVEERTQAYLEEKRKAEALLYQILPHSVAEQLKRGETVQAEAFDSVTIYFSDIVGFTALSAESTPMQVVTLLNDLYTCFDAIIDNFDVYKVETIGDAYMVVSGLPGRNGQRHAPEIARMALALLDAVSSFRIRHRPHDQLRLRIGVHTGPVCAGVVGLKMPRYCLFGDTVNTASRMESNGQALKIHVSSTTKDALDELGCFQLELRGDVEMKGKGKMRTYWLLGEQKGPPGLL

[2] = in vitro NEP cleavage assay, assay period 160 minutes
[3] = NIH3T3 cells, 10 nM natriuretic peptide, normalized to cell number and cGMP production with 1 uM wtCNP22
[4] = NIH3T3 cells, 1 uM natriuretic peptide, normalized to cell number and cGMP production with 1 uM wtCNP22

Sequence of neutral endopeptidase (NEP) (P08473 whole entry): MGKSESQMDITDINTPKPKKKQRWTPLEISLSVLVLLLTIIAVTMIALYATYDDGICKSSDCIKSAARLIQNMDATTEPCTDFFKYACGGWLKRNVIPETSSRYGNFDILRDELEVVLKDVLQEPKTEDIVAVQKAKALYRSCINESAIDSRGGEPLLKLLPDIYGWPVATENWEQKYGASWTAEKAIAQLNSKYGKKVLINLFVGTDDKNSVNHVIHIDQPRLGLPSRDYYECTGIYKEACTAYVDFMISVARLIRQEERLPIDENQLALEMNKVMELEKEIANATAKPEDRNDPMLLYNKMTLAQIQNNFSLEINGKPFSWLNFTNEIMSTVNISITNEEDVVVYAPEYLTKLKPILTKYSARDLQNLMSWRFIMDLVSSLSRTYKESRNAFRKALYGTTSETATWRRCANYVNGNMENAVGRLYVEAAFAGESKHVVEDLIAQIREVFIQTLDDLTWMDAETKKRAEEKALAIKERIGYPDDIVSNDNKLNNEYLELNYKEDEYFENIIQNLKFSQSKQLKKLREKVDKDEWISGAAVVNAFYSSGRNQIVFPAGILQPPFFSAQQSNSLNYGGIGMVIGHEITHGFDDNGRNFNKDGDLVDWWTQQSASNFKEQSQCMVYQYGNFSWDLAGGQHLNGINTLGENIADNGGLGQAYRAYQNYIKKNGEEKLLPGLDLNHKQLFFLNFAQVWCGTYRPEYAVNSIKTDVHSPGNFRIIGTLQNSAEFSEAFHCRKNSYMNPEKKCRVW
Sequence of Recombinant human NEP (P08473 whole entry): as above

cGMP response relative to 1 uM CNP22 (%) at 0.01 µM (NPR-B; [3]) [%]	cGMP response relative to 1 uM CNP22 (%) at 1 µM (NPR-B; [4]) [%]	cGMP Response rel. to 1 uM CNP22, 10 nM (NPR-B; [3])	cGMP Response rel. to 1 uM CNP22, 1 uM (NPR-B; [4])	Compound	half-life at 100 uM [1] [h]	resistance to NEP cleavage/degradation (in words) (Recombinant human NEP; [2])	cGMP response relative to 1 uM CNP22 (%) at 0.01 µM (NPR-B; NIH3T3, […]) [%]	cGMP response relative to 1 uM CNP22 (%) at 1 µM (NPR-B; NIH3T3, […]) [%]	resistance to NEP cleavage/degradation (in words) (Recombinant human NEP)	NEP Cleavage (t1/2, min) (Recombinant human NEP)	other results
				CC[C@H](C)[C@@H]1NC(=O)[C@H](CCCNC(=N)N)NC(=O)[C@H](CC(=O)O)NC(=O)[C@H](CC(C)C)N(C)C(=O)[C@H](CCCCN)NC(=O)[C@H](CC(C)C)N(C)C(=O)CNC(=O)[C@H](Cc2ccccc2)NC(=O)[C@@H](NC(=O)CNC(=O)[C@H](CCCCN)NC(=O)[C@H](CO)NC(=O)[C@H](CC(C)C)NC(=O)CN)CSSC[C@@H](C(=O)O)NC(=O)CNC(=O)[C@H](CC(C)C)N(C)C(=O)CNC(=O)[C@H](CO)NC(=O)[C@H](CCSC)NC(=O)[C@H](CO)NC(=O)CNC1=O [L]	0.5	significantly shorter half-life	18	10			
2	32			CC[C@H](C)[C@@H]1NC(=O)[C@H](CCCNC(=N)N)NC(=O)[C@H](CC(=O)O)NC(=O)[C@H](CC(C)C)NC(=O)[C@H](CCCCN)NC(=O)[C@H](CC(C)C)NC(=O)CNC(=O)[C@H](Cc2ccccc2)NC(=O)[C@@H](NC(=O)CNC(=O)[C@H](CCCNC(=N)N)NC(=O)[C@H](CO)NC(=O)[C@H](CC(C)C)NC(=O)CNC(=O)[C@H](CCC(N)=O)NC(=O)[C@H](CCC(N)=O)NC(=O)[C@H](CC(N)=O)NC(=O)[C@H](C)NC(=O)CNC(=O)[C@@H](NC(=O)[C@H](Cc2ccc(O)cc2)NC(=O)[C@@H](NC(=O)[C@H](CCC(N)=O)NC(=O)[C@@H]2CCCN2C(=O)[C@H](CCC(=O)O)NC(=O)[C@H](CCCNC(=N)N)NC(=O)[C@@H]2CCCN2C(=O)[C@H](CCC(N)=O)NC(=O)CN)C(C)C)[C@@H](C)O)CSSC[C@@H](C(=O)O)NC(=O)CNC(=O)[C@H](CC(C)C)NC(=O)CNC(=O)[C@H](CO)NC(=O)[C@H](CCSC)NC(=O)[C@H](CO)NC(=O)CNC1=O [CK] (H-GQPREPQVYTGANQQGLSRGCFGLKLDRIGSMSGLGC-OH; disulfide 21-37 (inferred); N-terminus and C-terminus assumed)	≥ 2.67				most resistant to NEP degradation		
				CC[C@H](C)[C@@H]1NC(=O)[C@H](CCCNC(=N)N)NC(=O)[C@H](CC(=O)O)NC(=O)[C@H](CC(C)C)N(C)C(=O)[C@H](CCCCN)NC(=O)[C@H](CC(C)C)N(C)C(=O)CNC(=O)[C@H](Cc2ccccc2)NC(=O)[C@@H](NC(=O)CNC(=O)[C@H](CCCCN)NC(=O)[C@H](CO)NC(=O)[C@H](CC(C)C)NC(=O)CN)CSSC[C@@H](C(=O)O)NC(=O)CNC(=O)[C@H](CC(C)C)NC(=O)CNC(=O)[C@H](CO)NC(=O)[C@H](CCSC)NC(=O)[C@H](CO)NC(=O)CNC1=O [M]	> 2.67	greatest resistance to NEP cleavage	1	11			
				CC[C@H](C)[C@@H]1NC(=O)[C@H](CCCNC(=N)N)NC(=O)[C@H](CC(=O)O)NC(=O)[C@H](CC(C)C)NC(=O)[C@H](CCCCN)NC(=O)[C@H](CC(C)C)NC(=O)CNC(=O)[C@H](Cc2ccccc2)N(C)C(=O)[C@@H](NC(=O)CNC(=O)[C@H](CCCCN)NC(=O)[C@H](CO)NC(=O)[C@H](CC(C)C)NC(=O)CN)CSSC[C@@H](C(=O)O)NC(=O)CNC(=O)[C@H](CC(C)C)NC(=O)CNC(=O)[C@H](CO)NC(=O)[C@H](CCSC)NC(=O)[C@H](CO)NC(=O)CNC1=O [B]			2	38			resistance to cleavage at the Cys6-Phe7 bond relative to wtCNP22 (Recombinant human NEP; data not shown): resistance or improved resistance; resistance to cleavage of the Gly8-Leu9 bond (Recombinant human NEP; in the presence of 1 ug/mL NEP, data not shown): exhibited resistance
		15 ± 3	68 ± 17	PEG1K-CNP22: CNP22 conjugated at the N-terminus to polydispersed PEG1K						>>160 min	
				CC[C@H](C)[C@@H]1NC(=O)[C@H](CCCNC(=N)N)NC(=O)[C@H](CC(=O)O)NC(=O)[C@H](CC(C)C)NC(=O)[C@H](CCCCN)NC(=O)[C@H](CC(C)C)NC(=O)CNC(=O)[C@H](Cc2ccccc2)NC(=O)[C@@H](NC(=O)CNC(=O)[C@H](CCCNC(=N)N)NC(=O)[C@H](CO)NC(=O)[C@H](CC(C)C)NC(=O)CNC(=O)[C@H](CCCNC(=N)N)NC(=O)[C@@H]2CCCN2C(=O)[C@H](CC(N)=O)NC(=O)[C@H](C)NC(=O)CNC(=O)CCOCCOCCOCCOCCOCCOCCOCCOCCOCCOCCOCCOC)CSSC[C@@H](C(=O)O)NC(=O)CNC(=O)[C@H](CC(C)C)NC(=O)CNC(=O)[C@H](CO)NC(=O)[C@H](CCSC)NC(=O)[C@H](CO)NC(=O)CNC1=O [PEO12-GANPR-CNP22, K4R] ({CH3O(CH2CH2O)11CH2CH2CO}-GANPRGLSRGCFGLKLDRIGSMSGLGC-OH; disulfide 11-27; C-terminus assumed)					same half-life as wtCNP22		half-life at 100 uM ([1]; recombinant human neutral endopeptidase (NEP)): 1.33 h
		8 ± 1	20 ± 7	PEG5K-CNP22: CNP22 conjugated at the N-terminus to polydispersed PEG5K					resistant to NEP degradation over the assay period of 160 minutes	>>160 min	
25	102			CC[C@H](C)[C@@H]1NC(=O)[C@H](CCCNC(=N)N)NC(=O)[C@H](CC(=O)O)NC(=O)[C@H](CC(C)C)NC(=O)[C@H](CCCCN)NC(=O)[C@H](CC(C)C)NC(=O)CNC(=O)[C@H](Cc2ccccc2)NC(=O)[C@@H](NC(=O)CNC(=O)[C@H](CO)NC(=O)CNC(=O)[C@H](CCC(N)=O)NC(=O)[C@@H](NC(=O)[C@H](CCSC)NC(=O)[C@H](CCCCN)NC(=O)[C@@H]2CCCN2C(=O)[C@@H](N)CO)C(C)C)CSSC[C@@H](C(=O)N[C@@H](CCCCN)C(=O)N[C@H](C(=O)N[C@@H](CC(C)C)C(=O)N[C@@H](CCCNC(=N)N)C(=O)N[C@@H](CCCNC(=N)N)C(=O)N[C@@H](Cc2c[nH]cn2)C(=O)O)C(C)C)NC(=O)CNC(=O)[C@H](CC(C)C)NC(=O)CNC(=O)[C@H](CO)NC(=O)[C@H](CCSC)NC(=O)[C@H](CO)NC(=O)CNC1=O [CD] (H-SPKMVQGSGCFGLKLDRIGSMSGLGCKVLRRH-OH; disulfide 10-26 (inferred); N-terminus and C-terminus assumed)					much more resistant to NEP cleavage than CNP22		

Compound	cGMP response relative to 1 uM CNP22 (%) at 0.01 µM (NPR-B; [3]) [%]	cGMP response relative to 1 uM CNP22 (%) at 1 µM (NPR-B; [4]) [%]	cGMP Response rel. to 1 uM CNP22, 10 nM (NPR-B; [3])	cGMP Response rel. to 1 uM CNP22, 1 uM (NPR-B; [4])	half-life at 100 uM [1] [h]	resistance to NEP cleavage/degradation (in words) (Recombinant human NEP; [2])	cGMP response relative to 1 uM CNP22 (%) at 0.01 µM (NPR-B; NIH3T3, […]) [%]	cGMP response relative to 1 uM CNP22 (%) at 1 µM (NPR-B; NIH3T3, […]) [%]	resistance to NEP cleavage/degradation (in words) (Recombinant human NEP)	NEP Cleavage (t1/2, min) (Recombinant human NEP)	other results
CC[C@H](C)[C@@H]1NC(=O)[C@H](CCCNC(=N)N)NC(=O)[C@H](CC(=O)O)NC(=O)[C@H](CC(C)C)NC(=O)[C@H](CCCCN)NC(=O)[C@H](CC(C)C)NC(=O)CNC(=O)[C@H](Cc2ccccc2)NC(=O)[C@@H](NC(=O)CNC(=O)[C@H](CCCCN)NC(=O)[C@H](CO)NC(=O)[C@H](CC(C)C)NC(=O)CNC(=O)CCOCCOCCOCCOCCOCCOCCOCCOCCOCCOCCOCCOCCOCCOCCOCCOCCOCCOCCOCCOCCOCCOCCOCCOC)CSSC[C@@H](C(=O)O)NC(=O)CNC(=O)[C@H](CC(C)C)NC(=O)CNC(=O)[C@H](CO)NC(=O)[C@H](CCSC)NC(=O)[C@H](CO)NC(=O)CNC1=O [PEO24-CNP22]	8 ± 5	46 ± 10			> 2.67	resistant to NEP degradation over the assay period of 160 minutes					
PEG2K-CNP22: CNP22 conjugated at the N-terminus to polydispersed PEG2K			6 ± 2	32 ± 4						>>160 min	
